Experimental findings from patent publication US12098145B2 (Libra Therapeutics, Inc., priority 2022, dated 2024) are described below.

Where a name gives a salt, the structure may show the parent alone. Read-outs that look alike come from different tables or passages of the source.

One assay has as its target T1, TRPML1 (Homo sapiens, UniProt Q9GZU1).
T1 construct: expressed in transfected cells; host or cells: HEK T-REx cells stably expressing GCaMP6f and TRPML1
As to the kind of experiment: Cellular TRPML1 assay (FLIPR, GCaMP6f calcium read-out). The assay is classed as cell-based. The essentials: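 HEK T-REx cells stably expressing TRPML1 and GCaMP6f, seeded 24 h before in Optimem + 0.5% FBS. After ~10 min pre-incubation at room temperature, compounds in Ca2+-free Tyrode's buffer were injected on FLIPR Tetra (final DMSO 0.5%). Calcium fluorescence kinetics followed for 300 s.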

Another assay relates to TFEB. Put plainly: TFEB translocation assay (TFEB reporter in U2OS cells, imaging). The assay is classed as cell-based. Particulars: Homo sapiens; U2OS cell line with TFEB reporter, 2 hours incubation, nucleus to cytoplasm ratio, normalized to Torin-1; read-out: TFEB Translocation pEC50 (converted). The essentials:
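U2OS cells stably expressing mRFP-fused TFEB reporter, switched to Opti-MEM then treated 2 h at 37 °C with compounds (0.5% DMSO, 0.015% Tween 80). Hoechst-stained, PFA-fixed cells imaged at 20×; nucleus/cytoplasm intensity ratio per well normalized to Torin-1 (100%) and DMSO (0%).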

Setting [1] is: HEKT-REx/GCaMP6f/TRPML1 cells, FLIPR TETRA, kinetic response over 300 seconds, read-out: TRPML1 FLIPR pEC50 (converted).

T1 sequence (Q9GZU1 whole entry): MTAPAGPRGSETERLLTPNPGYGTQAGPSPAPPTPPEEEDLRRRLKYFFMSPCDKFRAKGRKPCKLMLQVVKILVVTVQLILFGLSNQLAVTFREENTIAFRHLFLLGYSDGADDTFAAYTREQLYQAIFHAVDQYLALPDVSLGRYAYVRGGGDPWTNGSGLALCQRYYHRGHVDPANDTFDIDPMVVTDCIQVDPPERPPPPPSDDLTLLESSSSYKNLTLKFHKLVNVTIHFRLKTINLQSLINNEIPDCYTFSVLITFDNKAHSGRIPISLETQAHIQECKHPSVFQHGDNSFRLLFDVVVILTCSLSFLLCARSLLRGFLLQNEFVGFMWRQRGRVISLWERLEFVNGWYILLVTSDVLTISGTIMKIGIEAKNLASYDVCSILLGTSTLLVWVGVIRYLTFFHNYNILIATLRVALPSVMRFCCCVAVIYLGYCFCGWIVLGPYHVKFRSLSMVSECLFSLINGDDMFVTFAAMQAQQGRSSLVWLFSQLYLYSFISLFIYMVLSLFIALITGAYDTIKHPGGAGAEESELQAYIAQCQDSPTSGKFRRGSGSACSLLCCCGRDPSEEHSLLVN

Regarding `O=C(Nc1cc(F)c(O[C@@H]2C[C@@H]3C[C@@H]3C2)c(F)c1)c1nc(N2CCCC2)oc1CN1CCCC1` [Example 308, N-(4-(cis-bicyclo[3.1.0]hexan-3-yloxy)-3,5-difluorophenyl)-2-(pyrrolidin-1-yl)-5-(pyrrolidin-1-ylmethyl)oxazole-4-carboxamide hydrochloride], the EC50 at TRPML1 (setting [1]) and with TFEB was 0.01 to 1 µM each time.
For `COC1(C)CN(c2nc(C(=O)Nc3cc(F)c(O[C@@H]4C[C@@H]5C[C@@H]5C4)c(F)c3)c(CCF)o2)C1` [Example 276, N-(4-(cis-bicyclo[3.1.0]hexan-3-yloxy)-3,5-difluorophenyl)-5-(2-fluoroethyl)-2-(3-methoxy-3-methylazetidin-1-yl)oxazole-4-carboxamide], the EC50 on TRPML1 (setting [1]) and with TFEB was 0.01 to 1 µM throughout.
Regarding `O=C(Nc1ccc(OC2CCCC2(F)F)c(F)c1)c1nc(N2CCOCC2)oc1CC(F)(F)F` (stereo not shown) [Example 6, N-(4-((2,2-difluorocyclopentyl)oxy)-3-fluorophenyl)-2-morpholino-5-(2,2,2-trifluoroethyl)oxazole-4-carboxamide], the EC50 was 1 to 10 µM at TRPML1 (setting [1]) and 0.01 to 1 µM in the assay with TFEB.
Taken in the same sequence, the figures for `CCc1oc(N2CCC3(CC3)C2)nc1C(=O)Nc1cc(F)c(O[C@@H]2C[C@@H]3C[C@@H]3C2)c(F)c1` [Example 235, N-(4-(cis-bicyclo[3.1.0]hexan-3-yloxy)-3,5-difluorophenyl)-5-ethyl-2-(5-azaspiro[2.4]heptan-5-yl)oxazole-4-carboxamide] were 0.01 to 1 µM and 0.01 to 1 µM.
In the case of `O=C(Nc1ccc(N2CCCCC2)c(F)c1)c1nc(N2CCC3(C2)CC(F)(F)C3)oc1CC(F)(F)F` [Example 28, 2-(2,2-difluoro-6-azaspiro[3.4]octan-6-yl)-N-(3-fluoro-4-(piperidin-1-yl)phenyl)-5-(2,2,2-trifluoroethyl)oxazole-4-carboxamide], the EC50 at TRPML1 (setting [1]) and with TFEB was 1 to 10 µM each time.
With `CCc1oc(N2CC3CCCC3C2)nc1C(=O)Nc1cc(F)c(OC2CC3C[C@H]3C2)c(F)c1` (stereo partly drawn) [Example 240, N-(4-(cis-bicyclo[3.1.0]hexan-3-yloxy)-3,5-difluorophenyl)-5-ethyl-2-(hexahydrocyclopenta[c]pyrrol-2(1H)-yl)oxazole-4-carboxamide], the EC50 on TRPML1 (setting [1]) and in the assay on TFEB was 0.01 to 1 µM throughout.
`O=C(Nc1ccc(O[C@@H]2C[C@@H]3C[C@@H]3C2)c(F)c1)c1nc(N2CCC3(CC3)C2)oc1CC(F)(F)F` [Example 75, 2-{5-azaspiro[2.4]heptan-5-yl}-N-(4-{cis-bicyclo[3.1.0]hexan-3-yloxy}-3-fluorophenyl)-5-(2,2,2-trifluoroethyl)oxazole-4-carboxamide]: the EC50 at TRPML1 (setting [1]) and in the assay with TFEB was 0.01 to 1 µM throughout.
`COC1(C)CN(c2nc(C(=O)Nc3cc(F)c(O[C@@H]4C[C@@H]5C[C@@H]5C4)c(Cl)c3)c(CC(F)(F)F)o2)C1` [Example 130, N-(4-(cis-bicyclo[3.1.0]hexan-3-yloxy)-3-chloro-5-fluorophenyl)-2-(3-methoxy-3-methylazetidin-1-yl)-5-(2,2,2-trifluoroethyl)oxazole-4-carboxamide]: the EC50 on TRPML1 (setting [1]) and in the assay on TFEB was 0.01 to 1 µM in each case.
As for `O=C(Nc1ccc(OC2CCCC2(F)F)c(F)c1)c1nc(N2CC3(C2)CC(F)(F)C3)oc1CC(F)(F)F` (stereo not shown) [Example 17, 2-(6,6-difluoro-2-azaspiro[3.3]heptan-2-yl)-N-(4-((2,2-difluorocyclopentyl)oxy)-3-fluorophenyl)-5-(2,2,2-trifluoroethyl)oxazole-4-carboxamide], the EC50 at TRPML1 (setting [1]) and with TFEB was 0.01 to 1 µM each time.
For `CCc1oc(N2CC(CC)(OC)C2)nc1C(=O)Nc1cc(F)c(N2CC3CC(C3)C2)c(F)c1` [Example 254, N-(4-(3-azabicyclo[3.1.1]heptan-3-yl)-3,5-difluorophenyl)-5-ethyl-2-(3-ethyl-3-methoxyazetidin-1-yl)oxazole-4-carboxamide], the EC50 on TRPML1 and in the assay on TFEB was 0.01 to 1 µM each time.
On to `CCc1oc(N2CC(CC)(OC)C2)nc1C(=O)Nc1cc(F)c(O[C@@H]2C[C@@H]3C[C@@H]3C2)c(Cl)c1` [Example 219, N-(4-(cis-bicyclo[3.1.0]hexan-3-yloxy)-3-chloro-5-fluorophenyl)-5-ethyl-2-(3-ethyl-3-methoxyazetidin-1-yl)oxazole-4-carboxamide], for which the EC50 on TRPML1 (setting [1]) and in the assay on TFEB was 0.01 to 1 µM throughout.
In the case of `CCc1oc(N2CC3CCC3C2)nc1C(=O)Nc1ccc(OC2CC3C[C@H]3C2)c(F)c1` (stereo partly drawn) [Example 247, N-(4-(cis-bicyclo[3.1.0]hexan-3-yloxy)-3-fluorophenyl)-2-(3-azabicyclo[3.2.0]heptan-3-yl)-5-ethyloxazole-4-carboxamide], the EC50 on TRPML1 (setting [1]) and in the assay on TFEB was 0.01 to 1 µM throughout.
As to `O=C(Nc1ccc(N2CCCCC2)c(F)c1)c1nc(N2CCC3(CCOC3)C2)oc1CC(F)(F)F` (stereo not shown) [Example 31, N-(3-fluoro-4-(piperidin-1-yl)phenyl)-2-(2-oxa-7-azaspiro[4.4]nonan-7-yl)-5-(2,2,2-trifluoroethyl)oxazole-4-carboxamide], the EC50 at TRPML1 (setting [1]) and in the assay with TFEB was 1 to 10 µM in each case.
As to `O=C(Nc1cc(F)c(O[C@@H]2C[C@@H]3C[C@@H]3C2)c(F)c1)c1nc(N2CCC3(CC3)C2)oc1CCF` [Example 288, N-(4-(cis-bicyclo[3.1.0]hexan-3-yloxy)-3,5-difluorophenyl)-5-(2-fluoroethyl)-2-(5-azaspiro[2.4]heptan-5-yl)oxazole-4-carboxamide], the EC50 at TRPML1 (setting [1]) and in the assay on TFEB was 0.01 to 1 µM each time.
Take `CCC1(CC)CN(c2nc(C(=O)Nc3cc(O)c(O[C@@H]4C[C@@H]5C[C@@H]5C4)c(F)c3)c(CC(F)(F)F)o2)C1` [Example 269, N-(4-(cis-bicyclo[3.1.0]hexan-3-yloxy)-3-fluoro-5-hydroxyphenyl)-2-(3,3-diethylazetidin-1-yl)-5-(2,2,2-trifluoroethyl)oxazole-4-carboxamide]: the EC50 at TRPML1 (setting [1]) and in the assay with TFEB was 0.01 to 1 µM each time.
Turning to `CCC1(CC)CN(c2nc(C(=O)Nc3cc(F)c(OC4CC5C[C@H]5C4)c(F)c3)c(COC)o2)C1` (stereo partly drawn) [Example 295, N-(4-(cis-bicyclo[3.1.0]hexan-3-yloxy)-3,5-difluorophenyl)-2-(3,3-diethylazetidin-1-yl)-5-(methoxymethyl)oxazole-4-carboxamide], the EC50 on TRPML1 (setting [1]) and in the assay with TFEB was 0.01 to 1 µM each time.
Consider `O=C(Nc1ccc(OC2CCCC2(F)F)c(F)c1)c1nc(N2CCC3(CCOC3)C2)oc1CC(F)(F)F` (stereo not shown) [Example 13, N-(4-((2,2-difluorocyclopentyl)oxy)-3-fluorophenyl)-2-(2-oxa-7-azaspiro[4.4]nonan-7-yl)-5-(2,2,2-trifluoroethyl)oxazole-4-carboxamide], for which the EC50 at TRPML1 (setting [1]) and in the assay with TFEB was 1 to 10 µM in each case.
As to `O=C(Nc1cc(F)c(O[C@@H]2C[C@@H]3C[C@@H]3C2)c(F)c1)c1nc(N2CCC3CCCCC32)oc1CC(F)(F)F` (stereo partly drawn) [Example 163, N-(4-(cis-bicyclo[3.1.0]hexan-3-yloxy)-3,5-difluorophenyl)-2-(octahydro-1H-indol-1-yl)-5-(2,2,2-trifluoroethyl)oxazole-4-carboxamide], the EC50 at TRPML1 (setting [1]) and in the assay on TFEB was 0.01 to 1 µM throughout.
In the case of `CCC1(OC)CN(c2nc(C(=O)Nc3ccc(OC4CC5CC(C5)C4)c(F)c3)c(CC(F)(F)F)o2)C1` (stereo not shown) [Example 149, N-(4-(bicyclo[3.1.1]heptan-3-yloxy)-3-fluorophenyl)-2-(3-ethyl-3-methoxyazetidin-1-yl)-5-(2,2,2-trifluoroethyl)oxazole-4-carboxamide], the EC50 at TRPML1 (setting [1]) and in the assay on TFEB was 0.01 to 1 µM each time.
As to `O=C(Nc1cc(F)c(O[C@@H]2C[C@@H]3C[C@@H]3C2)c(F)c1)c1nc(N2CCC3COCC32)oc1CC(F)(F)F` (stereo partly drawn) [Example 144, N-(4-(cis-bicyclo[3.1.0]hexan-3-yloxy)-3,5-difluorophenyl)-2-(hexahydro-1H-furo[3,4-b]pyrrol-1-yl)-5-(2,2,2-trifluoroethyl)oxazole-4-carboxamide], the EC50 at TRPML1 (setting [1]) and in the assay with TFEB was 0.01 to 1 µM in each case.
`O=C(Nc1ccc(OC2CCCC2)c(F)c1)c1nc(N2CCC3(COC3)C2)oc1CC(F)(F)F` [Example 64, N-(4-(cyclopentyloxy)-3-fluorophenyl)-2-(2-oxa-6-azaspiro[3.4]octan-6-yl)-5-(2,2,2-trifluoroethyl)oxazole-4-carboxamide]: the EC50 on TRPML1 (setting [1]) and with TFEB was 1 to 10 µM each time.
With `CCC1(OC)CN(c2nc(C(=O)Nc3cc(F)c(N4C5CCCC4CC5)c(F)c3)c(CC(F)(F)F)o2)C1` [Example 206, N-(4-(8-azabicyclo[3.2.1]octan-8-yl)-3,5-difluorophenyl)-2-(3-ethyl-3-methoxyazetidin-1-yl)-5-(2,2,2-trifluoroethyl)oxazole-4-carboxamide], the EC50 at TRPML1 and in the assay on TFEB was 0.01 to 1 µM throughout.
On to `CCC1(CC)CN(c2nc(C(=O)Nc3cc(O)c(OC4CC5CC(C5)C4)c(F)c3)c(CC(F)(F)F)o2)C1` (stereo not shown) [Example 264, N-(4-(bicyclo[3.1.1]heptan-3-yloxy)-3-fluoro-5-hydroxyphenyl)-2-(3,3-diethylazetidin-1-yl)-5-(2,2,2-trifluoroethyl)oxazole-4-carboxamide], for which the EC50 at TRPML1 (setting [1]) and in the assay on TFEB was 0.01 to 1 µM each time.
